According to ChEMBL document CHEMBL4308841, “Synthesis, in vitro antiproliferative activity, and kinase inhibitory effects of pyrazole-containing diarylureas and diarylamides” (Eur J Med Chem, 2018):

Experiments:
[1] = tested on: RXF 393; experiment: Growth inhibition of human RXF393 cells assessed as cell growth at 100 uM incubated for 48 hrs by sulforhodamine B assay relative to control; format: functional; settings: RXF 393, 48 h, read-out: Activity
[2] = tested on: LOX IMVI; experiment: Growth inhibition of human LOXIMVI cells incubated for 48 hrs by sulforhodamine B assay; format: functional
[3] = tested on: UACC-257; experiment: Growth inhibition of human UACC257 cells assessed as cell growth at 0.1 uM incubated for 48 hrs by sulforhodamine B assay relative to control; format: functional; settings: UACC-257, 48 h, read-out: Activity
[4] = tested on: U-251; experiment: Growth inhibition of human U251 cells assessed as cell growth at 0.01 uM incubated for 48 hrs by sulforhodamine B assay relative to control; format: functional; settings: U-251, 48 h, read-out: Activity
[5] = tested on: RPMI-8226; experiment: Growth inhibition of human RPMI8226 cells assessed as cell growth at 100 uM incubated for 48 hrs by sulforhodamine B assay relative to control; format: functional; settings: RPMI-8226, 48 h, read-out: Activity
[6] = tested on: NCI-H322M; experiment: Growth inhibition of human NCI-H322M cells assessed as cell growth at 0.1 uM incubated for 48 hrs by sulforhodamine B assay relative to control; format: functional; settings: read-out: Activity
[7] = tested on: A498; experiment: Growth inhibition of human A498 cells assessed as cell growth at 100 uM incubated for 48 hrs by sulforhodamine B assay relative to control; format: functional; settings: A498, 48 h, read-out: Activity
[8] = tested on: MDA-MB-468; experiment: Growth inhibition of human MDA-MB-468 cells assessed as cell growth at 1 uM incubated for 48 hrs by sulforhodamine B assay relative to control; format: functional; settings: MDA-MB-468, 48 h, read-out: Activity
[9] = tested on: COLO 205; experiment: Growth inhibition of human COLO205 cells assessed as cell growth at 0.01 uM incubated for 48 hrs by sulforhodamine B assay relative to control; format: functional; settings: COLO 205, 48 h, read-out: Activity
[10] = tested on: HCC 2998; experiment: Growth inhibition of human HCC2998 cells assessed as cell growth at 0.01 uM incubated for 48 hrs by sulforhodamine B assay relative to control; format: functional; settings: HCC 2998, 48 h, read-out: Activity
[11] = tested on: SW-620; experiment: Growth inhibition of human SW620 cells incubated for 48 hrs by sulforhodamine B assay; format: functional, cell-based; settings: SW-620, 48 h
[12] = tested on: NCI/ADR-RES; experiment: Growth inhibition of human NCI/ADR-RES cells assessed as cell growth at 0.01 uM incubated for 48 hrs by sulforhodamine B assay relative to control; format: functional; settings: read-out: Activity
[13] = tested on: DU-145; experiment: Growth inhibition of human DU145 cells assessed as cell growth at 0.01 uM incubated for 48 hrs by sulforhodamine B assay relative to control; format: functional; settings: DU-145, 48 h, read-out: Activity
[14] = tested on: K562; experiment: Growth inhibition of human K562 cells incubated for 48 hrs by sulforhodamine B assay; format: functional, cell-based; settings: K562, 48 h
[15] = tested on: HCC 2998; experiment: Growth inhibition of human HCC2998 cells assessed as cell growth at 1 uM incubated for 48 hrs by sulforhodamine B assay relative to control; format: functional; settings: HCC 2998, 48 h, read-out: Activity
[16] = tested on: UACC-62; experiment: Growth inhibition of human UACC62 cells assessed as cell growth at 1 uM incubated for 48 hrs by sulforhodamine B assay relative to control; format: functional; settings: UACC-62, 48 h, read-out: Activity
[17] = tested on: UO-31; experiment: Growth inhibition of human UO31 cells assessed as cell growth at 0.1 uM incubated for 48 hrs by sulforhodamine B assay relative to control; format: functional; settings: UO-31, 48 h, read-out: Activity
[18] = tested on: Malme-3M; experiment: Growth inhibition of human MALME-3M cells assessed as cell growth at 1 uM incubated for 48 hrs by sulforhodamine B assay relative to control; format: functional; settings: read-out: Activity
[19] = tested on: M14; experiment: Growth inhibition of human M14 cells assessed as cell growth at 100 uM incubated for 48 hrs by sulforhodamine B assay relative to control; format: functional; settings: M14, 48 h, read-out: Activity
[20] = tested on: UACC-257; experiment: Growth inhibition of human UACC257 cells incubated for 48 hrs by sulforhodamine B assay; format: functional, cell-based; settings: UACC-257, 48 h
[21] = tested on: SNB-19; experiment: Growth inhibition of human SNB19 cells assessed as cell growth at 1 uM incubated for 48 hrs by sulforhodamine B assay relative to control; format: functional; settings: SNB-19, 48 h, read-out: Activity
[22] = tested on: DU-145; experiment: Growth inhibition of human DU145 cells assessed as cell growth at 0.1 uM incubated for 48 hrs by sulforhodamine B assay relative to control; format: functional; settings: DU-145, 48 h, read-out: Activity
[23] = tested on: UACC-62; experiment: Growth inhibition of human UACC62 cells assessed as cell growth at 100 uM incubated for 48 hrs by sulforhodamine B assay relative to control; format: functional; settings: UACC-62, 48 h, read-out: Activity
[24] = tested on: SF-268; experiment: Growth inhibition of human SF268 cells incubated for 48 hrs by sulforhodamine B assay; format: functional, cell-based; settings: SF-268, 48 h
[25] = tested on: SF-268; experiment: Growth inhibition of human SF268 cells assessed as cell growth at 0.01 uM incubated for 48 hrs by sulforhodamine B assay relative to control; format: functional; settings: SF-268, 48 h, read-out: Activity
[26] = tested on: HT-29; experiment: Growth inhibition of human HT-29 cells assessed as cell growth at 10 uM incubated for 48 hrs by sulforhodamine B assay relative to control; format: functional; settings: HT-29, 48 h, read-out: Activity
[27] = tested on: NCI-H226; experiment: Growth inhibition of human NCI-H226 cells assessed as cell growth at 1 uM incubated for 48 hrs by sulforhodamine B assay relative to control; format: functional; settings: NCI-H226, 48 h, read-out: Activity
[28] = tested on: OVCAR-5; experiment: Growth inhibition of human OVCAR5 cells assessed as cell growth at 100 uM incubated for 48 hrs by sulforhodamine B assay relative to control; format: functional; settings: OVCAR-5, 48 h, read-out: Activity
[29] = tested on: SN12C; experiment: Growth inhibition of human SN12C cells assessed as cell growth at 1 uM incubated for 48 hrs by sulforhodamine B assay relative to control; format: functional; settings: read-out: Activity
[30] = tested on: HOP-62; experiment: Growth inhibition of human HOP62 cells assessed as cell growth at 1 uM incubated for 48 hrs by sulforhodamine B assay relative to control; format: functional; settings: HOP-62, 48 h, read-out: Activity
[31] = read-out: LC50 (the source's name)
[32] = read-out: pLC50 (the source's name) (converted)

Work on O=C(Nc1cccc(-n2cc(-c3ccncc3)c(-c3cc(O)cc(Cl)c3)n2)c1)c1ccc(N2CCOCC2)c(C(F)(F)F)c1 yielded a growth at 100 µM [1] of -39%, a GI50 ([2]; read-out: GI50) of 1.03 µM and a CC50 [2, 31] greater than 100 µM. It also gave a TGI ([2]; read-out: TGI) of 48.1 µM, a GI50 ([2]; read-out: pGI50 (converted)) of 1.02 µM and a CC50 [2, 32] greater than 100 µM. The TGI ([2]; read-out: pTGI (converted)) was 4.57 µM, the growth at 0.1 µM [3] was 91% and the growth at 0.01 µM [4] was 97%. The growth at 100 µM [5] was -32%, the growth at 0.1 µM [6] was 97% and the growth at 100 µM [7] was -12%. The growth at 1 µM [8] was 75%, the growth at 0.01 µM [9] was 106% and the growth at 0.01 µM [10] was 102%. The GI50 ([11]; read-out: GI50) was 2.53 µM, the LC50 ([11]; read-out: LC50) was greater than 100 µM and the TGI ([11]; read-out: TGI) was 70.6 µM. It also gave a GI50 ([11]; read-out: pGI50 (converted)) of 2.82 µM, an LC50 ([11]; read-out: pLC50 (converted)) greater than 100 µM and a TGI ([11]; read-out: pTGI (converted)) of 7.08 µM. For the same compound, the growth at 0.01 µM [12] was 101%, the growth at 0.01 µM [13] was 100% and the GI50 ([14]; read-out: GI50) was 0.554 µM. The LC50 ([14]; read-out: LC50) was greater than 100 µM, the TGI ([14]; read-out: TGI) was 40.8 µM and the GI50 ([14]; read-out: pGI50 (converted)) was 0.562 µM. It also gave an LC50 ([14]; read-out: pLC50 (converted)) greater than 100 µM, a TGI ([14]; read-out: pTGI (converted)) of 4.9 µM and a growth at 1 µM [15] of 70%. The growth at 1 µM [16] was 58%, the growth at 0.1 µM [17] was 95% and the growth at 1 µM [18] was 52%. The growth at 100 µM [19] was -54%, the GI50 ([20]; read-out: GI50) was 2.36 µM and the CC50 [20, 31] was greater than 100 µM. It also gave a TGI ([20]; read-out: TGI) of 84 µM, a GI50 ([20]; read-out: pGI50 (converted)) of 2.34 µM and a CC50 [20, 32] greater than 100 µM. The TGI ([20]; read-out: pTGI (converted)) was 8.51 µM, the growth at 1 µM [21] was 90% and the growth at 0.1 µM [22] was 108%. It also gave a growth at 100 µM [23] of -31%, a GI50 ([24]; read-out: GI50) of 5.51 µM and a CC50 [24, 31] greater than 100 µM. For the same compound, the TGI ([24]; read-out: TGI) was greater than 100 µM, the GI50 ([24]; read-out: pGI50 (converted)) was 8.51 µM and the CC50 [24, 32] was greater than 100 µM. It also gave a TGI ([24]; read-out: pTGI (converted)) greater than 100 µM, a growth at 0.01 µM [25] of 101% and a growth at 10 µM [26] of 16.9%. It also gave a growth at 1 µM [27] of 90%, a growth at 100 µM [28] of -47% and a growth at 1 µM [29] of 58%. It also gave a growth at 1 µM [30] of 85%.
